# Results taken from ChEMBL document CHEMBL5042524, “Discovery of Novel Histone Deacetylase 6 (HDAC6) Inhibitors with Enhanced Antitumor Immunity of Anti-PD-L1 Immunotherapy in Melanoma” (J Med Chem, 2022).
# Calls of active or inactive are those of the source. No cut-off for these calls is given here.
# How the values were obtained:
# B16-F10 [1] = assay: Upregulation of alpha-tubulin expression in mouse B16-F10 cells at 0.1 to 2 uM incubated for 6 hrs by Western blot analysis; assay type: functional, cell-based; details: dose 0.1-2 µM
# [2] = target: T1, Protein deacetylase HDAC6 (Homo sapiens, UniProt Q9UBN7); assay: Inhibition of recombinant human N-terminal GST tagged HDAC6 expressed in baculovirus infected Sf9 insect cells using Ac-Leu-Gly-Lys (Ac)-AMC as substrate preincubated for 5 mins followed by substrate addition and measured after 30 mins by fluorescence microtiter plate reader assay
# T1 sequence (Q9UBN7 whole entry): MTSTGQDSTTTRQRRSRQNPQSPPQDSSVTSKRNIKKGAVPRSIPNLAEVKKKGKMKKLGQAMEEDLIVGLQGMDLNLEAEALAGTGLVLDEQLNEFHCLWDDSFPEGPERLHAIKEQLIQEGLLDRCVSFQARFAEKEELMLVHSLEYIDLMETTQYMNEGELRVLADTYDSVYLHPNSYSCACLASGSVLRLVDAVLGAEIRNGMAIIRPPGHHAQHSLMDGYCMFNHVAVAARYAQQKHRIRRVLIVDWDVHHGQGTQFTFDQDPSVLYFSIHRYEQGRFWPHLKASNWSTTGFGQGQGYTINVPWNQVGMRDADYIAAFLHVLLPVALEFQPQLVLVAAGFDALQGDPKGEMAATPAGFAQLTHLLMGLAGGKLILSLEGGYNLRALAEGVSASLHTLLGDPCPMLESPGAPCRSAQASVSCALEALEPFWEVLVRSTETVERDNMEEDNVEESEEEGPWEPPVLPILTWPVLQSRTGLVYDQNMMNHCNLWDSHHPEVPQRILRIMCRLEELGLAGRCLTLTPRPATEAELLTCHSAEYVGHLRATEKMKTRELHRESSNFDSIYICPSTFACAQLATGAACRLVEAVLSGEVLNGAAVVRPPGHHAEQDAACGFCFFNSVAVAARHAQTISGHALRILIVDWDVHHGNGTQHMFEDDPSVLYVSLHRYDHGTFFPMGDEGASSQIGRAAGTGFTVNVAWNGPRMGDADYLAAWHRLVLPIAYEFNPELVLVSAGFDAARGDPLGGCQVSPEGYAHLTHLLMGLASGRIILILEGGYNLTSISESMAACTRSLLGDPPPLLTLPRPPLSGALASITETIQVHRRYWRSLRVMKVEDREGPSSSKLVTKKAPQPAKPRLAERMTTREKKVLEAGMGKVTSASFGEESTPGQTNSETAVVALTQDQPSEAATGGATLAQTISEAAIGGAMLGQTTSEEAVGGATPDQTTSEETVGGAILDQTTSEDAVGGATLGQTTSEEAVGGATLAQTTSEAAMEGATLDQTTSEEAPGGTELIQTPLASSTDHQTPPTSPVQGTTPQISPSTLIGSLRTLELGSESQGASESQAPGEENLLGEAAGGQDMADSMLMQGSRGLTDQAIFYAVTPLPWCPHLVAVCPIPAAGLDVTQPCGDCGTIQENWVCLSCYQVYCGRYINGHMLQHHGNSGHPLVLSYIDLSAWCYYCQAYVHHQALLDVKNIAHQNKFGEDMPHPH
# [3] = Antiproliferative activity against human YCC-11 cells assessed as cell growth inhibition; assay type: functional, cell-based
# Jurkat [4] = assay: Upregulation of acetylated alpha-tubulin expression in human Jurkat T cells incubated for 6 hrs by Western blot analysis; assay type: functional, cell-based; details: dose 0.1-2 µM
# MCF7 = assay: cells; assay type: functional, cell-based; details: Homo sapiens, MCF7, 48 h
# Description: Antiproliferative activity against human MCF7 cells assessed as inhibition of cell proliferation measured after 48 hrs by MTT assay
# B16-F10 [5] = assay: Effect on acetyl-SMC3 expression level in mouse B16-F10 cells at 1 to 8 uM incubated for 6 hrs by Western blot analysis; assay type: functional, cell-based; details: dose 1-8 µM
# Jurkat [6] = assay: Induction of apoptosis in human Jurkat cells assessed as upregulation of Ku70 expression at 0.2 to 2 uM measured after 24 hrs by Western blot analysis; assay type: functional, cell-based; details: dose 0.2-2 µM
# Jurkat [7] = assay: Effect on acetyl-H3 expression level in human Jurkat T cells at 0.1 to 0.4 uM incubated for 6 hrs by Western blot analysis; assay type: functional, cell-based; details: dose 0.1-0.4 µM
# Jurkat [8] = assay: Induction of apoptosis in human Jurkat T cells assessed as increase in Bax protein expression at 0.2 to 2 uM measured after 6 hrs by Western blot analysis; assay type: functional, cell-based; details: dose 0.2-2 µM
# B16-F10 [9] = assay: Induction of apoptosis in mouse B16-F10 cells assessed as increase in apoptotic cells at 0.5 uM incubated for 48 hrs by Annexin V-FITC/PI staining based flow cytometry analysis relative to control; assay type: functional
# [10] = Cytotoxicity against human Jurkat cells assessed as reduction in cell viability incubated for 72 hrs by CCK-8 assay
# B16-F10 [11] = assay: Induction of apoptosis in mouse B16-F10 cells assessed as increase in apoptotic cells at 0.1 uM incubated for 48 hrs by Annexin V-FITC/PI staining based flow cytometry analysis relative to control; assay type: functional
# Jurkat [12] = assay: Effect on acetyl-H3 expression level in human Jurkat T cells at 0.1 to 0.8 uM incubated for 6 hrs by Western blot analysis; assay type: functional, cell-based; details: dose 0.1-0.8 µM
# A549 = assay: cells; assay type: functional, cell-based; details: Homo sapiens, A549, 48 h
# Description: Antiproliferative activity against human A549 cells assessed as inhibition of cell proliferation measured after 48 hrs by MTT assay
# [13] = Antiproliferative activity against human YCC3/7 cells assessed as cell growth inhibition; assay type: functional, cell-based
# Jurkat [14] = assay: Upregulation of alpha-tubulin expression in human Jurkat T cells at 0.1 to 2 uM incubated for 6 hrs by Western blot analysis; assay type: functional, cell-based; details: dose 0.1-2 µM
# HCT-116 = assay: cells; assay type: functional, cell-based; details: Homo sapiens, HCT-116, 48 h
# Description: Antiproliferative activity against human HCT-116 cells assessed as inhibition of cell proliferation measured after 48 hrs by MTT assay
# B16-F10 [15] = assay: Effect on acetyl-H3 expression level in mouse B16-F10 cells at 1 to 4 uM incubated for 6 hrs by Western blot analysis; assay type: functional, cell-based; details: dose 1-4 µM
# Jurkat [16] = assay: Induction of apoptosis in human Jurkat T cells assessed as downregulation of Bcl-2 expression at 0.2 to 2 uM incubated for 6 hrs by Western blot analysis; assay type: functional, cell-based; details: dose 0.2-2 µM
# Histone deacetylase 3 = Histone deacetylase 3 (Homo sapiens, UniProt O15379); assay: Inhibition of recombinant human His-tagged HDAC3 expressed in baculovirus insect cells using Ac-Leu-Gly-Lys (Ac)-AMC as substrate preincubated for 5 mins followed by substrate addition and measured after 30 mins by fluorescence microtiter plate reader assay
# B16-F10 [17] = assay: Upregulation of acetylated alpha-tubulin expression in mouse B16-F10 cells incubated for 6 hrs by Western blot analysis; assay type: functional, cell-based; details: dose 0.1-2 µM
# Jurkat [18] = assay: Effect on acetyl-SMC3 expression level in human Jurkat T cells at 0.1 to 0.4 uM incubated for 6 hrs by Western blot analysis; assay type: functional, cell-based; details: dose 0.1-0.4 µM
# B16-F10 [19] = assay: Induction of apoptosis in mouse B16-F10 cells assessed as increase in apoptotic cells at 1 uM incubated for 48 hrs by Annexin V-FITC/PI staining based flow cytometry analysis relative to control; assay type: functional
# B16-F10 [20] = assay: Effect on acetyl-SMC3 expression level in mouse B16-F10 cells at 1 to 4 uM incubated for 6 hrs by Western blot analysis; assay type: functional, cell-based; details: dose 1-4 µM
# B16-F10 [21] = assay: cells; assay type: functional, cell-based; details: Mus musculus, B16-F10, 48 h
# Description: Antiproliferative activity against mouse B16-F10 cells assessed as inhibition of cell proliferation measured after 48 hrs by MTT assay
# Jurkat [22] = assay: Effect on acetyl-SMC3 expression level in human Jurkat T cells at 0.1 to 0.8 uM incubated for 6 hrs by Western blot analysis; assay type: functional, cell-based; details: dose 0.1-0.8 µM
# Sequence of Histone deacetylase 3 (O15379 whole entry): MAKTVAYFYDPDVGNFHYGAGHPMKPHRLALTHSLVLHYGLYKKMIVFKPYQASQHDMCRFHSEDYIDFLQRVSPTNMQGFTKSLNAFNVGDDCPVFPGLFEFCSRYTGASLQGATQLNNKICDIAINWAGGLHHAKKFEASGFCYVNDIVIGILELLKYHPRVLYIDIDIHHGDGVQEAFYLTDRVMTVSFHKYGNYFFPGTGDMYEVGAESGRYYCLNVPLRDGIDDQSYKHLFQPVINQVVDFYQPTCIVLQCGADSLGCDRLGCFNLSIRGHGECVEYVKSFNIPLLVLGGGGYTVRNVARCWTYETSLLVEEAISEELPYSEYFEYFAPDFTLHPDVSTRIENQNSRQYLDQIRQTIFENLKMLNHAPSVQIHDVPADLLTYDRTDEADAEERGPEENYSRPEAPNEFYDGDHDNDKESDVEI
Structure (SMILES),Activity (B16-F10 [1]),IC50 [2],IC50 [3],Activity (Jurkat [4]),IC50 (MCF7),Activity (B16-F10 [5]),Activity (Jurkat [6]),Activity (Jurkat [7]),Activity (Jurkat [8]),Activity (B16-F10 [9]),IC50 at 72 h [10],Activity (B16-F10 [11]),Activity (Jurkat [12]),IC50 (A549),IC50 [13],Activity (Jurkat [14]),IC50 (HCT-116),Activity (B16-F10 [15]),Activity (Jurkat [16]),IC50 (Histone deacetylase 3),further results
COc1ccc(-c2ncc(C(=O)NCCCCCCC(=O)NO)[nH]2)c(OC)c1,inactive,0.048 µM,1.28 µM,Dose-Dependent Effect,2.68 µM,Active,inactive,Active,Active,38.71%,0.23 µM,16.58%,Active,2.22 µM,1.52 µM,inactive,1.17 µM,Active,Active,7.12 µM,Activity (B16-F10 [17]): Dose-Dependent Effect; Activity (Jurkat [18]): Active; Activity (B16-F10 [19]): 57.73%; Activity (B16-F10 [20]): Active; IC50 (B16-F10 [21]): 5.26 µM; Activity (Jurkat [22]): Active
COc1ccc(-c2ncc(C(=O)NCCCCCCC(=O)NO)s2)c(OC)c1,inactive,0.031 µM,0.92 µM,Dose-Dependent Effect,0.91 µM,Active,inactive,Active,Active,78.98%,0.16 µM,57.09%,Active,1.91 µM,1.08 µM,inactive,0.51 µM,Active,Active,10.4 µM,Activity (B16-F10 [17]): Dose-Dependent Effect; Activity (Jurkat [18]): Active; Activity (B16-F10 [19]): 87.91%; Activity (B16-F10 [20]): Active; IC50 (B16-F10 [21]): 2.31 µM; Activity (Jurkat [22]): Active
